The source of these data is article PMC5264272 (EBioMedicine, 2016).

One assay relates to murine Treg cells. As to the kind of experiment: Treg suppression assay with Tregs pre-treated in vitro. The settings on record: 10 μM, 2 h pre-treatment of Tregs, washing, 3-day suppression assay. It counts as cell-based.
Assay [1] deals with human multiple myeloma cells. The note with it: immunodeficient mice; ref Chauhan et al., 2012; cited from earlier work.

Consider `CC(=O)c1cc([N+](=O)[O-])c(Sc2cccc(Cl)c2Cl)s1` [P5091], for which, in the assay on murine Treg cells, the “effect on murine Treg function in vitro” value is “almost completely abrogated Treg function”. The “growth of human multiple myeloma cells as xenografts” value in assay [1] is recorded as “direct effects on the growth”.
